Tests used:
[1] = Inhibition of ABCB1 (unknown origin) expressed in HEK293T cells assessed as reduction in paclitaxel IC50 at 2 uM pre-incubated for 4 hrs followed by paclitaxel addition and measured after 72 hrs by MTT assay
[2] = Inhibition of ABCB1 (unknown origin) expressed in HEK293T cells assessed as reduction in colchicine IC50 at 1 uM pre-incubated for 4 hrs followed by colchicine addition and measured after 72 hrs by MTT assay
[3] = Inhibition of ABCB1 (unknown origin) expressed in HEK293T cells assessed as reduction in colchicine IC50 at 2 uM pre-incubated for 4 hrs followed by colchicine addition and measured after 72 hrs by MTT assay
[4] = Inhibition of ABCB1 (unknown origin) expressed in HEK293T cells assessed as reduction in colchicine IC50 at 0.5 uM pre-incubated for 4 hrs followed by colchicine addition and measured after 72 hrs by MTT assay
[5] = Inhibition of ABCB1 (unknown origin) expressed in HEK293T cells assessed as reduction in paclitaxel IC50 at 0.5 uM pre-incubated for 4 hrs followed by paclitaxel addition and measured after 72 hrs by MTT assay
[6] = Inhibition of ABCB1 (unknown origin) expressed in HEK293T cells assessed as reduction in paclitaxel IC50 at 1 uM pre-incubated for 4 hrs followed by paclitaxel addition and measured after 72 hrs by MTT assay

IC50 [1]: 3.6 µM
IC50 [2]: 101 µM
IC50 [3]: 22.2 µM
IC50 [4]: 321 µM
IC50 [5]: 30.5 µM
IC50 [6]: 12.2 µM
SMILES: COc1cc2ncnc(-c3c(-c4ccccc4)n(Cc4ccccc4Br)c4ccccc34)c2cc1OCCCN1CCOCC1

— BindingDB's records for doi:10.1021/acs.jmedchem.1c01452 (Zhengzhou University, 2021)
